The source of these data is patent publication US20260306640A1, “TECHNOLOGIES TARGETING CELL STATES” (Auron Therapeutics, Inc., priority 2023, published 2026).

Assay [1] deals with T1, KAT2A (Homo sapiens, UniProt Q92830). Nature of the assay: KAT2A degradation, Western Blot (Jess), MOLM-13 cells. The class given is cell-based. The arrangement: degrader, Western blot. In outline: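 MOLM-13 cells in RPMI 1640/20% FBS were treated with compound for 24 h at 37 °C. RIPA lysates (4 μg) were run on a capillary Western (Jess) with anti-KAT2A antibody and chemiluminescent detection. DC50 comes from percent protein reduction versus DMSO control.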

Assay [2] has as its target T1, KAT2A. Nature of the assay: Western blot of KAT2A level in NEPC primary patient organoid, 72 hours. The class given is cell-based. More on the design: degrader, Western blot. The conditions noted are these: FIG. 3 (D). The protocol: (§1) FIG. 3. Provided compounds can provide various activities. (A): Provided technologies can reduce KAT2A and KAT2B levels and histone acetylation levels. […] Cell viability (Cell Titer Glo) data relative to DMSO control after 7 days of treatment with compound 22 are presented as examples to confirm inhibition. GI50=5 nM. (C): Provided technologies can modulate cell states and induce differentiation. […] (D): Provided technologies can reduce KAT2A and KAT2B levels and histone acetylation levels including in neuroendocrine prostate cancer primary patient organoid. […] Concentrations are nM. […] Cell viability data relative to DMSO control after 21 days of treatment with compound 22 are presented as examples to confirm inhibition. GI50=3 nM. (F): Provided technologies can modulate cell states and induce differentiation.
A general note: A western blot detects proteins with antibodies after separation by electrophoresis.

A further assay has as its system microglial GSEA. Nature of the assay: Microglial GSEA in NEPC primary patient organoid. The class given is cell-based. Particulars: both epithelial and neural components; FIG. 3 (F). As for the experimental part: as §1
In assay [3] the test system is NEPC primary patient organoid. Put plainly: Cell viability of NEPC primary patient organoid, 21 days. The conditions noted are these: Homo sapiens, 504 h, cell viability relative to DMSO control after 21 days, FIG. 3 (E). The format is cell-based. As for the experimental part: as §1
Assay [4] concerns the target T1, KAT2A. Put plainly: KAT2A reduction in LASCPC-01 cells. The format is cell-based. The arrangement: degrader, Western blot. As for the experimental part: MOLM-13 cells or NCI-H1048 cells were washed with PBS, then lysed with RIPA buffer containing 1×protease and phosphatase inhibitors (SantaCruz Biotechnologies Cat #sc-24948A). Protein was isolated by centrifugation at 12,000×g for 10 minutes at 4° C. and supernatant was collected. Protein was quantified via Bradford assay. Samples were diluted to 4 μg lysate in 16 μL RIPA buffer and then 4 μL of Jess Sample Buffer. Samples were heated at 95° C. for 5 minutes. Samples were loaded onto 12-230 kDa Jess™ Separation Module, 8×25 capillary cartridges (SM-W004, Biotechne). Antibodies loaded were: Primary antibody for KAT2A (GCN5L2 (C26A10) Rabbit mAb (3305, CST)) and for KAT2B (PCAF (C14G9)) Rabbit mAb (3378, CST) at 1:1000 and Anti-Rabbit Detection Module for Jess™ (Cat No #DM-001, Biotechne). Signal was detected by chemiluminescence.
In some embodiments, assessment was performed in LASCPC-01 cells, and reduction of KAT2A and KAT2B levels, including in some cases selectivity for one over the other, was confirmed. In some embodiments, DC50 and/or DC90 were assessed. In some embodiments, DC50 for various compounds was about or no more than about 1 nM. In some embodiments, DC90 for various compounds was about or no more than about 1 nM. In some embodiments, selectivity for the same polypeptide by a compound was observed across multiple types of cells (e.g., when assessed using DC50 and/or DC90). In some embodiments, certain compounds can provide improved properties and/or activities (e.g., potency). Data from certain assessments for certain compounds are presented below as examples (NT: not tested). It has been confirmed that various compounds described herein, including multiple compounds in Table 1, can be deemed to provide further improved properties and/or activities compared to the compound(s) in the table below for certain contexts, aspects, and/or uses.

Assay [5] concerns histone acetylation. Put plainly: Western blot of histone acetylation in NEPC primary patient organoid, 72 hours. The format is cell-based. Particulars: FIG. 3 (D). As for the experimental part: as §1
Another assay deals with CD86. Put plainly: CD86 by flow cytometry (monocytic differentiation), MOLM-13 cells, 48 hours. The format is cell-based. Particulars: FIG. 2 (C). As for the experimental part: FIG. 2. Provided compounds can provide various activities. (A): Provided technologies can reduce KAT2A and KAT2B levels and histone acetylation levels. […] Cell count data after 8 days of treatment with compound 22 relative to DMSO control are presented as examples to confirm inhibition. […] (C): Provided technologies can modulate cell states and induce differentiation. […] EC50=0.3 nM.
A general note: In flow cytometry, cells or beads pass a laser one at a time.

A further assay relates to LASCPC-01 cells. Nature of the assay: Inhibition of growth in vivo, neuroendocrine prostate cancer (LASCPC-01) cells. The conditions noted are these: FIG. 3 (see also Example B3).
In assay [6] the target is T1, KAT2A. Nature of the assay: Western blot of KAT2A level in NCI-H1048 cells, 24 h. The conditions noted are these: various concentrations, FIG. 1 (B). The class given is cell-based. More on the design: degrader, Western blot. The protocol: (§2) FIG. 1. Provided compounds can provide various activities including inhibiting tumor growth in vivo. (A): Provided compounds can inhibit tumor growth in vivo. Nude Balb/c mice were inoculated with NCI-H1048 cells in Matrigel. Tumors were allowed to grow up to about 200 mm^3 and mice were then randomized into two groups. Mice were dosed intraperitoneally (i.p.) once per week with vehicle or 30 mg/kg compound 22. Tumor size was measured every three to four days and mice were sacrificed once vehicle tumors reached 2000 mm^3. Error bar is SEM. Dosing started at day 17 post tumor inoculation. (B): Provided technologies can reduce KAT2A and KAT2B levels and histone acetylation levels. […] Vehicle is DMSO. […] Cell count data relative to DMSO control after 8 days of treatment with compound 22 are presented as examples to confirm inhibition. GI50=6 nM. (D): Provided technologies can inhibit tumor growth in vivo. Nude balb/c mice inoculated with H1048 tumors were dosed intraperitoneally once per week (qw i.p.) with vehicle (HbCD) or compound 22. Average tumor volumes+/−SEM from 6 mice are represented. […] See also (A). […] Certain body weights relative to starting weight are presented as examples to confirm tolerability and safety. (F): Provided technologies can reduce KAT2A and KAT2B levels and histone acetylation levels in tumor in vivo. […]

Assay [7] has as its system histone acetylation. Nature of the assay: Western blot of histone acetylation in neuroendocrine prostate cancer LASCPC-01 cells, 24 hours. The class given is cell-based. Particulars: FIG. 3 (A). The protocol: as §1
The next assay concerns NCI-H1048 tumors. Nature of the assay: Tumor growth inhibition in nude Balb/c mice bearing NCI-H1048 tumors. The class given is in vivo. The conditions noted are these: 30 mg/kg, once per week i.p.; average tumor volumes from 6 mice; FIG. 1 (D). As for the experimental part:
as §2

T1 sequence (Q92830 whole entry): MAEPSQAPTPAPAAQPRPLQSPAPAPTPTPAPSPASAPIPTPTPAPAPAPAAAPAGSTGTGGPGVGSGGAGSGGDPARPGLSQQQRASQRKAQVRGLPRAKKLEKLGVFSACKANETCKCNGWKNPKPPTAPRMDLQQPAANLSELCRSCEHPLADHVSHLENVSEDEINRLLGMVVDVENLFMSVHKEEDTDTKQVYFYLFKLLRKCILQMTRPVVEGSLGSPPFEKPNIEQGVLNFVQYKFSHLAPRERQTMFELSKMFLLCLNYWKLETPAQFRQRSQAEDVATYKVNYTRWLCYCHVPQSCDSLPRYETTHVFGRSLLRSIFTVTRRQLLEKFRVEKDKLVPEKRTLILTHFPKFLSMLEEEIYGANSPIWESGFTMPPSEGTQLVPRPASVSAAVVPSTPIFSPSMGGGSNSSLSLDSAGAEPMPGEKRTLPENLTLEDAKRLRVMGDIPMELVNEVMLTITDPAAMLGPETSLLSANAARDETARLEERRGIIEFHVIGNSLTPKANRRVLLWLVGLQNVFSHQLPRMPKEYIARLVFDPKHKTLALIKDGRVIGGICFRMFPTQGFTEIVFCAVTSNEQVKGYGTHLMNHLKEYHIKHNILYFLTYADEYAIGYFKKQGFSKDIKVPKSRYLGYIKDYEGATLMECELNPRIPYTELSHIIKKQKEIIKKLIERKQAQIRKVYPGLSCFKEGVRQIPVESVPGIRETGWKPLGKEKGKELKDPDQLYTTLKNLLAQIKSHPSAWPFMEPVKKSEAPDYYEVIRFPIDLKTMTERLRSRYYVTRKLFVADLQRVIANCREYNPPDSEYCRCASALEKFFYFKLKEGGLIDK

As usually defined, the DC50 is the midpoint of the concentration-degradation curve. One may read the GI50 as the concentration giving 50% growth inhibition. Higher therefore signals less potent growth inhibition. One may read the EC50 as the concentration that produces a half-maximal response. A lower EC50 goes with greater potency. As for `CN1C[C@H](Nc2cnn(C)c(=O)c2Br)C[C@H](c2ccc(C(=O)N3CCC(CN4CCN(c5ccc6c(c5)CN(C5CCC(=O)NC5=O)C6=O)CC4)CC3)cc2)C1` (stereo partly drawn) [Compound 22, 3-(5-(4-((1-(4-((3R,5R)-5-((5-bromo-1-methyl-6-oxo-1,6-dihydropyridazin-4-yl)amino)-1-methylpiperidin-3-yl)benzoyl)piperidin-4-yl)methyl)piperazin-1-yl)-1-oxoisoindolin-2-yl)piperidine-2,6-dione], the EC90 at KAT2A [1] (24 h, MOLM-13, KAT2A, read-out: DC90 (the source's name)) turned out to be 600 pM; on KAT2A [4] (LASCPC-01, KAT2A, read-out: DC90 (the source's name)) it was 670 pM. Moreover, the DC50 was 110 pM at KAT2A [1] (MOLM-13, KAT2A, read-out: DC50); < 1000 pM at KAT2A [1] (MOLM-13 cells, KAT2A, 24 h, Western Blot, vs DMSO, read-out: KAT2A MOLM-13 DC50); 60 pM at KAT2A [4] (LASCPC-01, KAT2A). The KAT2A levels entry at KAT2A [1] (MOLM-13 cells, FIG. 2) is “potently reduce KAT2A and KAT2B levels”; on KAT2A [4] (LASCPC-01 cells, FIG. 3), “potently reduce KAT2A and KAT2B levels”. Moreover, the “reduction of KAT2A level” value on KAT2A [2] is “confirmed such reductions”; on KAT2A [6] it was “confirm such reduction”. Moreover, the “microglial GSEA” value in the assay on microglial GSEA is “significant upregulation”. In addition, in [3], halving of growth (GI50) required 3000 pM. The “reduction of histone acetylation level” value is “confirmed such reductions” in the assay with histone acetylation [5] and “confirm such reduction” in the assay on histone acetylation [7]. Also, in the assay on CD86 (CD86 flow cytometry at 48 hours), the monocytic differentiation result was “monocytic differentiation was observed”. The concentration giving a half-maximal response (EC50) in the assay on CD86 (Homo sapiens, flow cytometry at 48 hours) is 300 pM. The “cell growth in vivo” value in the assay on LASCPC-01 cells is “inhibit cell growth in vitro and in vivo”. The same compound came in with a tumor growth inhibition with NCI-H1048 tumors of 70%.
